Results from article PMC12888861, “Antibacterial activity of enmetazobactam against Acinetobacter spp.: a molecular dissection of mechanism of action and resistance determinants” (Antimicrobial Agents and Chemotherapy, 2025).
Where two headings read alike, the source gives them in different places.

System: A. non-baumannii isolates (n = 87)
Experiment: MIC, broth microdilution (EUCAST), A. non-baumannii isolates
Assay type: cell-based, Acinetobacter spp. (non-baumannii)
Conditions: for MIC: in combinations ETZ fixed at 8 mg/L
Method in brief: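 Clinical isolates from the Spanish National Acinetobacter spp. 2020 collection were tested by EUCAST v.15 broth microdilution, including enmetazobactam on its own. Duplicate runs used A. baumannii ATCC 19606 as reference.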

CC1(C)[C@H](C(=O)O)N2C(=O)C[C@H]2S1(=O)=O [sulbactam]
100: MIC distribution 4 | MIC distribution 8 | MIC distribution 16 | MIC distribution 32
0.25 µg/mL: MIC (Acinetobacter haemolyticus, isolate NO-Ab217, Acinetobacter haemolyticus)
1.1: MIC distribution ≤0.06
82.8: MIC distribution 1
2.3: MIC distribution 0.12
44.8: MIC distribution 0.5
1 µg/mL: MIC (Acinetobacter baylyi, isolate NO-Ab27, Acinetobacter baylyi, read-out: MIC) | MIC (Acinetobacter bereziniae, isolate NO-Ab84, Acinetobacter bereziniae, read-out: MIC) | MIC (Acinetobacter bereziniae, isolate NO-Ab114, Acinetobacter bereziniae, read-out: MIC) | MIC (Acinetobacter bereziniae, isolate NO-Ab115, Acinetobacter bereziniae, read-out: MIC) | MIC (Acinetobacter bereziniae, isolate NO-Ab117, Acinetobacter bereziniae, read-out: MIC) | MIC (Acinetobacter bereziniae, isolate NO-Ab129, Acinetobacter bereziniae, read-out: MIC) | MIC (Acinetobacter bereziniae, isolate NO-Ab156, Acinetobacter bereziniae, read-out: MIC) | MIC (Acinetobacter calcoaceticus, isolate NO-Ab211, Acinetobacter calcoaceticus, read-out: MIC) | MIC (Acinetobacter guillouiae, isolate NO-Ab69, Acinetobacter guillouiae, read-out: MIC) | MIC (Acinetobacter johnsonii, isolate NO-Ab101, Acinetobacter johnsonii, read-out: MIC) | MIC (Acinetobacter lactucae, isolate NO-Ab60, Acinetobacter dijkshoorniae, read-out: MIC) | MIC (Acinetobacter lactucae, isolate NO-Ab63, Acinetobacter dijkshoorniae, read-out: MIC) | MIC (Acinetobacter lactucae, isolate NO-Ab65, Acinetobacter dijkshoorniae, read-out: MIC) | MIC (Acinetobacter lactucae, isolate NO-Ab86, Acinetobacter dijkshoorniae, read-out: MIC) | MIC (Acinetobacter lactucae, isolate NO-Ab91, Acinetobacter dijkshoorniae, read-out: MIC) | MIC (Acinetobacter lactucae, isolate NO-Ab125, Acinetobacter dijkshoorniae, read-out: MIC) | MIC (Acinetobacter nosocomialis, isolate NO-Ab68, Acinetobacter nosocomialis, OXA-24/40, read-out: MIC)
2 µg/mL: MIC (Acinetobacter beijerinckii, isolate NO-Ab122, Acinetobacter beijerinckii, read-out: MIC) | MIC (Acinetobacter calcoaceticus, isolate NO-Ab85, Acinetobacter calcoaceticus, read-out: MIC) | MIC (Acinetobacter calcoaceticus, isolate NO-Ab94, Acinetobacter calcoaceticus, read-out: MIC) | MIC (Acinetobacter calcoaceticus, isolate NO-Ab198, Acinetobacter calcoaceticus, read-out: MIC) | MIC (Acinetobacter calcoaceticus, isolate NO-Ab205, Acinetobacter calcoaceticus, read-out: MIC) | MIC (Acinetobacter lactucae, isolate NO-Ab121, Acinetobacter dijkshoorniae, read-out: MIC) | MIC (Acinetobacter nosocomialis, isolate NO-Ab43, Acinetobacter nosocomialis, read-out: MIC) | MIC (Acinetobacter nosocomialis, isolate NO-Ab98, Acinetobacter nosocomialis, read-out: MIC)
97.7: MIC distribution 2
8.0: MIC distribution 0.25
4 µg/mL: MIC (Acinetobacter calcoaceticus, isolate NO-Ab108, Acinetobacter calcoaceticus, read-out: MIC) | MIC (Acinetobacter calcoaceticus, isolate NO-Ab161, Acinetobacter calcoaceticus, read-out: MIC)
0.5 µg/mL: MIC (Acinetobacter bereziniae, isolate NO-Ab70, Acinetobacter bereziniae, read-out: MIC) | MIC (Acinetobacter bereziniae, isolate NO-Ab104, Acinetobacter bereziniae, read-out: MIC) | MIC (Acinetobacter bereziniae, isolate NO-Ab116, Acinetobacter bereziniae, read-out: MIC) | MIC (Acinetobacter courvalinii, isolate NO-Ab216, Acinetobacter courvalinii, read-out: MIC) | MIC (Acinetobacter dispersus, isolate NO-Ab2, Acinetobacter dispersus, read-out: MIC) | MIC (Acinetobacter guillouiae, isolate NO-Ab74, Acinetobacter guillouiae, read-out: MIC) | MIC (Acinetobacter haemolyticus, isolate NO-Ab92, Acinetobacter haemolyticus) | MIC (Acinetobacter haemolyticus, isolate NO-Ab177, Acinetobacter haemolyticus) | MIC (Acinetobacter junii, isolate NO-Ab76, Acinetobacter junii, read-out: MIC) | MIC (Acinetobacter junii, isolate NO-Ab77, Acinetobacter junii, OXA-24/40, read-out: MIC) | MIC (Acinetobacter lactucae, isolate NO-Ab88, Acinetobacter dijkshoorniae, read-out: MIC) | MIC (Acinetobacter lactucae, isolate NO-Ab160, Acinetobacter dijkshoorniae, read-out: MIC) | MIC (Acinetobacter nosocomialis, isolate NO-Ab208, Acinetobacter nosocomialis, read-out: MIC)
